Experimental data published in patent US20130116586A1, “USE OF DRONEDARONE OR A PHARMACEUTICALLY ACCEPTABLE SALT THEREOF FOR THE PREPARATION OF A DRUG FOR THE PREVENTION OF ATRIAL FIBRILLATION” (SANOFI, priority 2011, published 2013).
Structures can show the parent of a compound that is named as a salt.

Key:
[1] = test system: patients with permanent atrial fibrillation or flutter; test: PALLAS study: dronedarone 400 mg bid vs placebo on top of standard therapy; format: in vivo, human; conditions: for unplanned cardiovascular hospitalizations and mortality, events recorded: 400 mg bid; for relative risk of cardiovascular hospitalizations and deaths vs placebo: Cox model
Source text: The PALLAS trial (Permanent Atrial fibriLLAtion outcome Study) using dronedarone on top of standard therapy was designed to evaluate the efficacy of dronedarone on major cardiovascular events in a patient population with permanent AF.
The primary efficacy objective of PALLAS was the reduction of: • 1) major cardiovascular events (stroke, systemic arterial embolism, myocardial infarction or cardiovascular death), or • 2) unplanned cardiovascular hospitalization or death from any cause.
Patients with permanent AF were at least 65 years of age with a 12-lead ECG recorded no more than 14 days prior to randomization showing AF or atrial flutter, documentation in the form of ECG rhythm strips or medical reports indicating AF or atrial flutter for at least 6 months prior to randomization without evidence of sinus rhythm in the intervening period. In addition, both the patient and physician must have reached a decision to allow AF to continue without further efforts to restore sinus rhythm.
Patients were randomized to dronedarone 400 mg bid or placebo.
• 1. NYHA class IV or recent unstable NYHA class III heart failure, where unstable refers to a requirement for intensification of therapy (e.g., increased diuretic, ACE/ARB, or inotropic dosage due to exacerbated symptoms within one month prior to randomization). • 2. Sustained daytime bradycardia <50 bpm without a permanent pacemaker • 3. QTc interval ≧500 ms, or 530 ms if there is ventricular paced rhythm • 4. Hypersensitivity to the active substance or to any of its excipients • 5. Need for co-administration of strong CYP3A4 inhibitors, such as ketoconazole, itraconazole, voriconazole, telithromycin, clarithromycin, nefazodone and ritonavir leading to increased systemic exposure to dronedarone • 6. Need for co-administration of medicinal products capable of inducing torsades de pointes ventricular tachycardia, such as phenothiazines, cisapride, bepridil, tricyclic antidepressants, terfenadine and certain oral macrolides, or Vaughan Williams class I and III antiarrhythmic agents) • 7. Severe hepatic impairment
Treatment was initiated using tablets containing either the placebo or an amount of dronedarone hydrochloride corresponding to 400 mg of dronedarone at a rate of one tablet twice a day with the morning and evening meals.
The anticipated duration of the treatment was variable according to the time at which each patient was included in the study, and could range between 3 months for the last patient included and 3 years for the first patient included.
The results obtained in this trial were analysed by the Kaplan Meier method for the figures, and the relative risk (RR) was estimated using Cox's proportional-effect regression model.
The relative risk (RR) is the ratio of the rates of occurrence of a hospitalization or of a death among the patients on dronedarone, relative to the patients on placebo.

[2] = test system: patients hospitalized with symptomatic unstable heart failure and severe left ventricular systolic function; conditions: trial terminated early; cited from earlier work
[3] = test system: patients with atrial fibrillation; conditions: in vivo; cited from earlier work
[4] = test system: patients with permanent atrial fibrillation; conditions: in vivo; cited from earlier work
[5] = test system: patients with atrial fibrillation/atrial flutter; conditions: whole ATHENA trial; cited from earlier work
[6] = test system: patients with atrial fibrillation/atrial flutter; test: ATHENA trial, including post-hoc exploratory analysis of patients with AF on all follow-up ECGs; format: in vivo, human; conditions: for patients displaying AF on all ECGs recorded during follow-up: of 2301 patients assigned to dronedarone
Procedure: • AF/AFL atrial fibrillation or atrial flutter • ATHENA A placebo-controlled, double-blind, parallel arm Trial to assess the efficacy of dronedarone 400 mg bid for the prevention of cardiovascular Hospitalization or death from any cause in patiENts with Atrial fibrillation/atrial flutter • PALLAS Permanent Atrial fibriLLAtion Outcome Study Using Dronedarone on Top of Standard Therapy
For the sake of hypothesis generation, these patients can be considered as having permanent AF. In a post-hoc exploratory analysis of this cohort, the primary study endpoint (time to first CV hospitalization or all-cause death) occurred in 95 patients in the placebo group and 46 in the dronedarone group (HR 0.742, 95% Cl 0.522-1.056; p=0.096). Considering first unplanned CV hospitalizations, 85 patients in the placebo group and 37 on dronedarone reached this secondary study endpoint (HR 0.67, 95% Cl 0.46-0.99; p=0.04). There was a similar trend toward reduction in major cardiovascular events (stroke, ACS, cardiovascular death). These observations from ATHENA supported testing the efficacy of dronedarone for prevention of major cardiovascular events in patients with permanent AF.

CCCCc1oc2ccc(NS(C)(=O)=O)cc2c1C(=O)c1ccc(OCCCN(CCCC)CCCC)cc1 [dronedarone hydrochloride]
unplanned cardiovascular hospitalizations and mortality, events recorded ([1]; preliminary results, placebo group 72 events): 114 events
relative risk of cardiovascular deaths vs placebo ([1]; preliminary results, 95% CI 0.98-6.53, p=0.0462): 2.53
relative risk of cardiovascular hospitalizations vs placebo ([1]; preliminary results, 95% CI 1.15-2.12, p=0.0039): 1.56
relative risk of cardiovascular hospitalizations for heart failure vs placebo ([1]; preliminary results, 95% CI 1.22-3.99, p=0.0070): 2.21
relative risk of heart failure related episodes vs placebo ([1]; preliminary results, 95% CI 1.66-3.74, p<0.0001): 2.49
relative risk of cardiovascular hospitalizations and deaths vs placebo ([1]; preliminary results, 95% CI 1.20, 2.17, p=0.001): 1.62
cardiovascular mortality, events recorded ([1]; preliminary results, placebo group 6 events): 15 events
cardiovascular hospitalizations for heart failure, events recorded ([1]; preliminary results, placebo group 16 events): 35 events
heart failure, events recorded ([1]; preliminary results, placebo group 33 events): 80 events
unplanned cardiovascular hospitalizations, events recorded ([1]; preliminary results, placebo group 68 events): 104 events
relative risk of cardiovascular hospitalizations and death vs placebo ([1]; preliminary results, subgroup with NYHA class III heart failure, 95% CI 1.02, 2.44, p=0.041): 1.58
relative risk of cardiovascular hospitalizations and death vs placebo ([1]; preliminary results, subgroup with left ventricular ejection fraction (LVEF)<40%, 95% CI 1.20, 2.30, p=0.002): 1.66
relative risk of cardiovascular hospitalizations and death vs placebo ([1]; preliminary results, subgroup with symptomatic heart failure, 95% CI 1.01, 2.09, p=0.043): 1.46
unplanned cardiovascular hospitalizations and mortality, events recorded ([1]; results (III.1'), placebo group 67 events): 127 events
relative risk of cardiovascular hospitalizations and deaths vs placebo ([1]; results (III.1'), p<0.001): 1.95
relative risk of cardiovascular deaths vs placebo ([1]; results (III.2'), 95% CI 1.00-4.49, p=0.046): 2.11
cardiovascular mortality, events recorded ([1]; results (III.2'), placebo group 10 events): 21 events
relative risk of unplanned hospitalizations for cardiovascular causes vs placebo ([1]; results (III.3'), 95% CI 1.44-2.70, p<0.001): 1.97
unplanned hospitalizations for cardiovascular causes, events recorded ([1]; results (III.3'), placebo group 59 events): 113 events
relative risk of cardiovascular hospitalizations for heart failure vs placebo ([1]; results (III.4'), 95% CI 1.10-2.99, p=0.02): 1.81
cardiovascular hospitalizations for heart failure, events recorded ([1]; results (III.4'), placebo group 24 events): 43 events
relative risk of a heart failure episode or hospitalizations for heart failure vs placebo ([1]; results (III.9), 95% CI 1.57-2.98, p<0.001): 2.16
heart failure episode or hospitalizations for heart failure, events recorded ([1]; results (III.9), placebo group 55 events): 115 events

CCCCc1oc2ccc(NS(C)(=O)=O)cc2c1C(=O)c1ccc(OCCCN(CCCC)CCCC)cc1 [dronedarone, 2-n-Butyl-3-[4-(3-di-n-butylaminopropoxy)benzoyl]-5-methylsulphonamidobenzofuran]
mortality vs placebo [2]: increased mortality
rhythm-controlling efficacy [3]: has been demonstrated
co-primary outcomes, cardiovascular hospitalizations and heart failure events in the dronedarone group ([1]; preliminary review of the unblinded data): highly significant excess of events
rate control [4]: has rate-controlling properties
major clinical outcomes including cardiovascular hospitalizations or cardiovascular mortality, and stroke [5]: reduced major clinical outcomes
patients displaying AF on all ECGs recorded during follow-up ([6]; placebo 12.7%): 7.7%
patients displaying AF on all ECGs recorded during follow-up ([6]; placebo 296 of 2,327): 178 patients
HR for first unplanned CV hospitalizations vs placebo ([6]; post-hoc cohort with AF on all ECGs, 95% CI 0.46-0.99, p=0.04): 0.67
HR for primary study endpoint (first CV hospitalization or all-cause death) vs placebo ([6]; post-hoc cohort with AF on all ECGs, 95% CI 0.522-1.056, p=0.096): 0.742
first unplanned CV hospitalizations, patients reaching endpoint ([6]; post-hoc cohort with AF on all ECGs, placebo 85): 37 patients
primary study endpoint (time to first CV hospitalization or all-cause death), patients with event ([6]; post-hoc cohort with AF on all ECGs, placebo 95): 46 patients
